According to patent publication US10399932B2, “Inhibitors of indoleamine-2,3-dioxygenase for the treatment of cancer” (BRISTOL-MYERS SQUIBB COMPANY, priority 2015, dated 2019):

Molecular target: human IDO1 (Homo sapiens, UniProt P14902)
Test: Assessment of human IDO-1 inhibitory activity in Hela cells (Interferon-gamma activated, Ehrlich reagent, absorbance at 490 nm)
Assay type: cell-based
Set-up: endogenous in cells; host or cells: HeLa cells stimulated with interferon-gamma
Conditions: 18 hours
Procedure: Exemplary compounds were tested for inhibition of IDO activity.
HeLa cells were seeded at 20,000 cells per 30 µL per well with RPMI/phenol red free media containing 10% FBS in a 384-well tissue culture plate (black with clear bottoms). 50 nL of compound was added to cells and incubated at 37° C. for one hour. 20 μL of the recombinant human Interferon-gamma (R&D System, Cat. #285-IF, at final concentration of 10 ng/ml) or recombinant murine Interferon-gamma (PEPROTECH® Inc., Cat. #315-05, final concentration of 5 ng/ml) was added to activate IDO signaling. The cells were incubated for 18 hours in 37° C. incubator with 5% CO2.
Compound treatment was stopped by adding 5 μl trichloroacetic acid to a final concentration of 3%. Subsequently, the cell plate was further incubated at 50° C. for 30 minute. An equal volume supernatant (20 μL) and 2% (w/v) Ehrlich reagent (4-dimethylaminobenzaldehyde) in glacial acetic acid were mixed in a new clear bottom 384-well plate. This plate was incubated at room temperature for 30 minutes. Absorbance at 490 nm was measured on Envision plate reader.
Compound IC50 values were calculated using counts from unstimulated (no INF-gamma treatment) wells as 100% inhibition. INF-gamma treatment without compound treatment as 0% inhibition.

Chain of human IDO1 (P14902 whole entry): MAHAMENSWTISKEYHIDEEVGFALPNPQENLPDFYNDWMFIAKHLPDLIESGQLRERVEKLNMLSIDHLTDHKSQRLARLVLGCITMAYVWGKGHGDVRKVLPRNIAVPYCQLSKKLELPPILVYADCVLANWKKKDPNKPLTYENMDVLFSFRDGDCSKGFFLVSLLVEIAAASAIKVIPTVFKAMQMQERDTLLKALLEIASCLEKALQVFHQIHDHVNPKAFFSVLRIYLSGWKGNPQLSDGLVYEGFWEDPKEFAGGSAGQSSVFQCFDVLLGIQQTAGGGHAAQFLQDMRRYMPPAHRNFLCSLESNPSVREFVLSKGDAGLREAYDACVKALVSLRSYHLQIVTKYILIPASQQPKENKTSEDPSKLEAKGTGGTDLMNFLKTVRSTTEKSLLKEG

Compound | IC50
CCOc1ncc(Nc2cc([C@H](COC)CC(=O)O)ccc2N2CCOCC2CC)cn1 (single isomer, unassigned) [Example 1307] | > 50 nM
CC(CC(=O)O)c1ccc(N2C[C@@H](C)O[C@@H](C)C2)c(NC(=O)Nc2ccc(C#N)cc2)c1 (single isomer, unassigned) [Example 752] | > 50 nM
COCC(CC(=O)O)c1ccc(N2C[C@@H](C)O[C@@H](C)C2)c(Nc2ccc(C#N)cc2)c1 (single isomer, unassigned) [602 E2] | > 50 nM
CCOc1ncc(Nc2cc(C(CC)CC(=O)O)ccc2N2CCN(C(=O)OC)CC2)cn1 (single isomer, unassigned) [Example 670, 3-(3-((2-Ethoxypyrimidin-5-yl)amino)-4-(4-(methoxycarbonyl)piperazin-1-yl)phenyl)pentanoic acid] | > 50 nM
COCCN(c1ccc(C(COC)CC(=O)O)cc1NC(=O)Nc1ccc(C)cc1)C1CCOCC1 (single isomer, unassigned) [Example 261 Enantiomer 2, 4-Methoxy-3-(4-((2-methoxyethyl)(tetrahydro-2H-pyran-4-yl)amino)-3-(3-(p-tolyl)ureido)phenyl)butanoic acid] | > 50 nM
(R)-3-(4-((1,1-dioxidotetrahydro-2H-thiopyran-4-yl)(ethyl)amino)-3-((2-ethoxypyrimidin-5-yl)amino)phenyl)-4-isopropoxybutanoic acid [Example 333] | > 50 nM
CCN(c1ccc([C@H](COC)CC(=O)O)cc1Nc1ncc(F)cc1F)C1CCOCC1 (single isomer, unassigned) [Example 395] | > 50 nM
CCC1COCCN1c1ccc([C@@H](COC)CC(=O)O)cc1Nc1cnc(OC)nc1 (single isomer, unassigned) [Example 1298] | > 50 nM
CCOc1ncc(Nc2cc(C(COC)CC(=O)O)ccc2N(C)C2CCOCC2)cn1 (single isomer, unassigned) [Example 885, 3-(3-((2-ethoxypyrimidin-5-yl)amino)-4-(methyl (tetrahydro-2H-pyran-4-yl)amino)phenyl)-4-methoxybutanoic acid] | > 50 nM
3-(4-((1,1-dioxidotetrahydro-2H-thiopyran-4-yl)(ethyl)amino)-3-((4-fluorophenyl)amino)phenyl)-4-isopropoxybutanoic acid [Example 340] | < 50 nM
C[C@@H]1CN(c2ccc(C(CC(=O)O)C3CC3)cc2NC(=O)Nc2ccc(Cl)cc2F)C[C@H](C)O1 (single isomer, unassigned) [Example 253] | > 50 nM
COCC(CC(=O)O)c1ccc(N(C)C2CCOCC2)c(Nc2ccc(C#N)cc2)c1 (single isomer, unassigned) [Example 880, 3-(3-((4-Cyanophenyl)amino)-4-(methyl(tetrahydro-2H-pyran-4-yl)amino)phenyl)-4-methoxybutanoic acid] | < 50 nM
CCC(CC(=O)O)c1ccc(N(CC)C2CCOC2)c(NC(=O)Nc2ccc(Cl)cc2F)c1 (single isomer, unassigned) [948 D1] | < 50 nM
CCCN(c1ccc(C(CC)CC(=O)O)cc1NC(=O)Nc1ccc(C)cc1)C1CCS(=O)(=O)CC1 (single isomer, unassigned) [Example 14 Enantiomer 2, 3-(4-((1,1-Dioxidotetrahydro-2h-thiopyran-4-yl)(propyl)amino)-3-(3-(p-tolyl)ureido)phenyl)pentanoic acid] | > 50 nM
CCC1COCCN1c1ccc([C@@H](COC)CC(=O)O)cc1Nc1ccc(C#N)cn1 (single isomer, unassigned) [Example 1297] | > 50 nM

Results, then the compound that gave them:

IC50 | Compound
< 5 nM | CCOc1ncc(Nc2cc(C(CC)CC(=O)O)c(F)cc2N(CC)C2CCOCC2)cn1 (single isomer, unassigned) [Example 865, 3-(5-((2-ethoxypyrimidin-5-yl)amino)-4-(ethyl (tetrahydro-2H-pyran-4-yl)amino)-2-fluorophenyl) pentanoic acid]
< 5 nM | CCN(c1cc(F)c([C@@H](COC)CC(=O)O)cc1Nc1ccc(Cl)cc1)C1CCOCC1 (single isomer, unassigned) [Example 844, 3-(5-((4-Chlorophenyl)amino)-4-(ethyl(tetrahydro-2H-pyran-4-yl)amino)-2-fluorophenyl)-4-methoxybutanoic acid]
< 5 nM | CCC(CC(=O)O)c1cc(Nc2cnc(OC)nc2)c(N(CC)C2CCOCC2)cc1F (single isomer, unassigned) [Example 864, 3-(4-(ethyl(tetrahydro-2H-pyran-4-yl)amino)-2-fluoro-5-((2-methoxypyrimidin-5-yl)amino)phenyl)pentanoic acid]
< 50 nM | CCN(c1ccc(C(CC(=O)O)C2CC2)cc1Nc1cnc(OC)nc1)C1CCOCC1 (single isomer, unassigned) [Example 38, 3-cyclopropyl-3-(4-(ethyl(tetrahydro-2H-pyran-4-yl)amino)-3-((2-methoxypyrimidin-5-yl)amino)phenyl) propanoic acid]
< 5 nM | CCN(c1ccc([C@@H](COC)CC(=O)O)cc1Nc1cccc(OC(F)(F)C(F)F)c1)C1CCOCC1 [Example 361, (S)-3-(4-(ethyl(tetrahydro-2H-pyran-4-yl)amino)-3-((3-(1,1,2,2-tetrafluoroethoxy)phenyl)amino)phenyl)-4-methoxybutanoic acid]
< 50 nM | COCCN(c1ccc(C(COC)CC(=O)O)cc1Nc1ccc(C#N)cc1)C1CCOCC1 (single isomer, unassigned) [Example 259, 3-(3-((4-cyanophenyl)amino)-4-((2-methoxyethyl)(tetrahydro-2H-pyran-4-yl)amino)phenyl)-4-methoxybutanoic acid]
< 5 nM | CCN(c1ccc([C@H](COC)CC(=O)O)cc1Nc1ccc(Cl)cc1)C1CCOCC1 (single isomer, unassigned) [Example 413]
< 5 nM | COCC(CC(=O)O)c1ccc(N(CC(F)F)C2CCOCC2)c(Nc2ccc(Cl)cc2)c1 (single isomer, unassigned) [Example 321 Enantiomer 2, 3-(3-((4-Chlorophenyl)amino)-4-((2,2-difluoroethyl)(tetrahydro-2H-pyran-4-yl)amino)phenyl)-4-methoxybutanoic acid]
< 50 nM | CCN(c1cc(F)c(C(COC)CC(=O)O)cc1Nc1ccc(Cl)cc1)C1CCOCC1 (stereo not shown) [Example 845, 3-(5-((4-chlorophenyl)amino)-4-(ethyl(tetrahydro-2H-pyran-4-yl)amino)-2-fluorophenyl)-4-methoxybutanoic acid]
< 50 nM | 3-(5-((4-chlorophenyl) amino)-4-(ethyl(tetrahydro- 2H-pyran-4-yl)amino)-2- fluorophenyl)-4- methoxybutanoic acid [Example 852]
< 50 nM | CCOc1ncc(Nc2cc(C(CC)CC(=O)O)ccc2N(CC)C2CCOC2)cn1 (single isomer, unassigned) [947 D2]
< 50 nM | CCOc1ncc(Nc2cc(C(CC)CC(=O)O)ccc2N(C)C2CCOCC2)cn1 (single isomer, unassigned) [Example 872, 3-(3-((2-ethoxypyrimidin-5-yl)amino)-4-(methyl (tetrahydro-2H-pyran-4-yl)amino)phenyl)pentanoic acid]
< 50 nM | CCC(CC(=O)O)c1ccc(N2CC(O)(c3ccc(F)cc3)C2)c(Nc2ccc(C#N)cc2)c1 (single isomer, unassigned) [Example 1255, 3-(3-((4-cyanophenyl)amino)-4-(3-(4-fluorophenyl)-3-hydroxyazetidin-1-yl)phenyl)pentanoic acid]
< 5 nM | CC(CC(=O)O)c1ccc(N(CC(C)(C)O)C2CCCCC2)c(Nc2ccc(Cl)cc2)c1 (single isomer, unassigned) [Example 48 Enantiomer 2, 3-(3-((4-Chlorophenyl)amino)-4-(cyclohexyl(2-hydroxy-2-methylpropyl)amino)phenyl)butanoic acid]
< 50 nM | COCC(CC(=O)O)c1ccc(N(C)C2CCOCC2)c(Nc2ccc(C#N)cc2F)c1 (single isomer, unassigned) [Example 883, 3-(3-((4-cyano-2-fluorophenyl)amino)-4-(methyl(tetrahydro-2H-pyran-4-yl)amino)phenyl)-4-methoxybutanoic acid]
< 5 nM | COCC(CC(=O)O)c1ccc(N(CC(F)F)C2CCOCC2)c(Nc2ccc(C#N)cc2)c1 (single isomer, unassigned) [Example 323]
< 5 nM | CCC(CC(=O)O)c1cc(Nc2cnc(OCC3CC3)nc2)c(N(CC)C2CCOCC2)cc1F (single isomer, unassigned) [Example 863, 3-(5-((2-(cyclopropylmethoxy)pyrimidin-5-yl)amino)-4-(ethyl(tetrahydro-2H-pyran-4-yl)amino)-2-fluorophenyl) pentanoic acid]
< 50 nM | CCN(c1ccc(C(CC(=O)O)C2CC2)cc1Nc1ccc(OC)nc1)C1CCS(=O)(=O)CC1 (single isomer, unassigned) [Example 346, 3-cyclopropyl-3-(4-((1,1-dioxidotetrahydro-2H-thiopyran-4-yl)(ethyl)amino)-3-((6-methoxypyridin-3-yl)amino)phenyl)propanoic acid]
< 50 nM | CCC(CC(=O)O)c1ccc(N(CCOC)C2CCOCC2)c(Nc2cnc(OC)nc2)c1 (single isomer, unassigned) [Example 1262, 3-(4-((2-methoxyethyl)(tetrahydro-2H-pyran-4-yl)amino)-3-((2-methoxypyrimidin-5-yl)amino)phenyl)pentanoic acid]
